# Measurements from patent US11879142B2, “Bioactive peptide molecules discovered by a combination of bioinformatics technique and chemical synthesis” (Purdue Research Foundation, priority 2021, dated 2024).
# Non-standard residues stand in square brackets, D forms with d. Residues, ends and D or L forms follow the SMILES beside them. dOrn = NCCC[C@@H](N)C(=O)O
# Columns and labels:
# ESKAPE pathogens = assay: CLSI microbroth dilution antibacterial assay; format: cell-based
# Procedure: Bioactivity testing. Initial compounds were tested for activity against antibiotic sensitive and antibiotic resistant ESKAPE pathogens at concentrations varying between 0.5 and 32 μg/mL using the CLSI microbroth dilution assay.^47 Any well with greater than 90% death was considered a hit.
# (§1) Bacterial Strains. All strains used in this study except the Bacillus strain and the colistin resistant E. coli strains were obtained from Professor Paul Hergenrother (UIUC). The Bacillus strain was obtained from Professor William Metcalf (UIUC). The colistin resistant E. coli strains (AR Bank Number 0346, 0349, and 0350) were obtained from the CDC AR Isolate bank). E. coli ATCC 25922 (wild type, WT) BAA-2469 (resistant, R), colistin resistant E. coli, K pneumonia ATCC 27736 (WT) and BAA-2146 (R), A. baumannii ATCC 19606 (WT) and KB349 (R), and P. aeruginosa PAO1 (WT) and PA1000 (R) were grown on Mueller Hinton Broth 2 (Sigma Aldrich). S. aureus ATCC 29213 (WT) and NRS3 (R), Enterococcus species ATCC 19433 (WT) and 5235 (R), and B. subtilis 6633 (WT) were maintained on Bacto Brain Heart Infusion.
# Antibacterial activity analysis. […] Testing was performed as previously described.10 Turbidity (OD600) of the wells was determined using a SpectraMax iD3 platereader (Molecular Devices). For the compounds that hit during initial screens, minimum inhibitory concentrations were determined. […]
# [1] = system: Colistin-resistant bacteria; assay: CLSI microbroth dilution antibacterial assay, colistin-resistant strains; format: cell-based, E. coli
# Source text: as §1
# Antibacterial activity analysis. Antibacterial activity analysis for all bacteria was performed using the microdilution broth method as outlined by the Clinical and Laboratory Standards Institute (CLSI).9 Mueller Hinton Broth 2 (MH, Sigma-Aldrich, 90922) was used for all testing. Testing was performed as previously described.10 Turbidity (OD600) of the wells was determined using a SpectraMax iD3 platereader (Molecular Devices). For the compounds that hit during initial screens, minimum inhibitory concentrations were determined. A minimum of three biological replicates were performed. […]
# [2] = system: A549 non-small cell lung cancer cell line; assay: Alamar blue viability assay; format: cell-based, human; details: 16 ug/mL, 48 hours
# Procedure: Anticancer Testing. A549 non-small cell lung cancer cells (ATCC CCL-185) were obtained directly from ATCC and used within 30 passages. A549 cells were maintained in RPMI 1640 medium supplemented with 10% fetal bovine serum, 100 U/mL penicillin, and 100 ug/mL streptomycin. For anticancer testing, cells were seeded at 2000 cells per well in 96 well plates and allowed to adhere overnight. Cells were then treated with compound at 16 ug/mL (1% DMSO final) or vehicle control for 48 hours. Viability was assessed using Alamar Blue. Specifically, resazurin (Sigma Aldrich, R7017) was dissolved at 440 μM in sterile PBS. 20 μL was then added to each well and incubated for 4-8 h at 37° C. Fluorescence was measured using a SpectraMax iD3 platereader (Excitation: 550 nm, Emission 590 nm). Percent death was calculated by subtracting the background from all wells and setting 0% death to vehicle treated controls.
structure (smiles),measurement,setting,value
CC(C)[C@@H]1NC(=O)[C@@H](CCCNC(=N)N)NC(=O)[C@H]([C@@H](C)O)NC(=O)[C@@H](CCCN)NC(=O)[C@H](Cc2ccccc2)NC(=O)[C@@H](Cc2ccccc2)NC1=O [pNP-43] (cyclo(F[dOrn]T[dR]V[dF])),antibacterial activity (in words),ESKAPE pathogens,activity against several Gram-negative bacteria
same,susceptibility of colistin-resistant bacteria,[1],resistant
same,toxicity to A549 cells,[2],no observed hemolytic activity or mammalian cell toxicity
